The values below come from patent publication US20240360075A1, “N-SUBSTITUTED C6 CYCLYL CARBOXAMIDE COMPOUNDS AND USES THEREOF” (ALCON INC., priority 2023, published 2024).

Like-named read-outs stand apart in the source and are kept apart here. Where only a bound is given, the exact number is not on record here.

Experiment [1] has as its target mouse cold-menthol receptor TRPM8 (Mus musculus, UniProt Q8R4D5). The settings on record: described by Behrendt et al.; cited from earlier work.
Experiment [2] concerns the target TRPM8 (Mus musculus, UniProt Q8R4D5). Conditions: TRPV1 antagonists, described by Behrendt et al.; read-out: IC50 to block the response of TRPM8 to menthol; cited from earlier work.
Experiment [3] addresses T1, TRPM8 (Homo sapiens, UniProt Q7Z2W7).
T1 construct: purchased Eurofins (Cerep) item #3316
The experiment can be described thus: TRPM8 Human Transient Potential Ion Channel Cell Based Agonist Calcium Flux Assay (Eurofins Cerep item #3316). Conditions: for Emax: control activator ligand icilin, read-out: Percent Agonist; for EC50: room temperature. From the text:
Compounds can be tested using the commercially available kit from Eurofins “TRPM8 Human Transient Potential Ion Channel Cell Based Agonist Calcium Flux Assay, Cerep” item #3316, or using the assay, referenced by Eurofins, and described in Behrendt et al. “Characterization of the mouse cold-menthol receptor TRPM8 and vanilloid receptor type-1 VR1 using a fluorometric imaging plate reader (FLIPR) assay,” Br J Pharmacol. 2004 Feb;141(4):737-45, which are each incorporated herein by reference. […] 4.
The assay is done at room temperature and measures calcium flux.

For experiment [4], the target named is T1, TRPM8. Conditions: reported by the Eurofins website; cited from earlier work.

The term EC50 denotes the midpoint of the concentration-response curve. By IC50 is commonly meant the concentration that gives 50% inhibition.

Sequence of mouse cold-menthol receptor TRPM8 (Q8R4D5 whole entry): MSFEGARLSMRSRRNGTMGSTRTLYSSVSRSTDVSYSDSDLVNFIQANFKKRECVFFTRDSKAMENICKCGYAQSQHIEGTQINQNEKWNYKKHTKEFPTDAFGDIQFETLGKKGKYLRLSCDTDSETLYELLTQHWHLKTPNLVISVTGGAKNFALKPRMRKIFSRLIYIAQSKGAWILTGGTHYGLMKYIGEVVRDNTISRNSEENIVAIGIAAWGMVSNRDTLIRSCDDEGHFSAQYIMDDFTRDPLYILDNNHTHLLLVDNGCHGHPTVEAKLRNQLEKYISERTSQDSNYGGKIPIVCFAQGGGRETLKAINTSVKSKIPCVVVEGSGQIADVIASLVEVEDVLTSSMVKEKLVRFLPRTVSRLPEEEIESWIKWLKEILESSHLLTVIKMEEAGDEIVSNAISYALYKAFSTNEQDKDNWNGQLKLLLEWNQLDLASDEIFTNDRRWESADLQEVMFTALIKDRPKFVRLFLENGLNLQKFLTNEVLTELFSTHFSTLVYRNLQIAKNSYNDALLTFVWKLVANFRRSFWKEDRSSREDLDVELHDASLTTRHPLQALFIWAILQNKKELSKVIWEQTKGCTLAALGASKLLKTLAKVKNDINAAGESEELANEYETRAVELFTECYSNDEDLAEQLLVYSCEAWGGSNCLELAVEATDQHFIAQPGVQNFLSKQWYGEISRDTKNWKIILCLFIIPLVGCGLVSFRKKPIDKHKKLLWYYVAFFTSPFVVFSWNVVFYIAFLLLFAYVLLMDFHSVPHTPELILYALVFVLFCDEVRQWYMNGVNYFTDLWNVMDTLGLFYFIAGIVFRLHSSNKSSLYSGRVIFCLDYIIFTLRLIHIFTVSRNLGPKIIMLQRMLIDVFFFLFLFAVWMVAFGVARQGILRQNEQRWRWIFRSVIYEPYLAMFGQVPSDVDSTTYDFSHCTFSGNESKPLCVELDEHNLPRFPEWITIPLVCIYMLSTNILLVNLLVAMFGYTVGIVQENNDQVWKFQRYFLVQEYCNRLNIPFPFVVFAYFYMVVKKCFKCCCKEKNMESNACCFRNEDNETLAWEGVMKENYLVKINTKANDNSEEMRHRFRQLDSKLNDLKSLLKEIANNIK
Sequence of TRPM8 (Mus musculus, UniProt Q8R4D5) (Q8R4D5 whole entry): as above
T1 sequence (Q7Z2W7 whole entry): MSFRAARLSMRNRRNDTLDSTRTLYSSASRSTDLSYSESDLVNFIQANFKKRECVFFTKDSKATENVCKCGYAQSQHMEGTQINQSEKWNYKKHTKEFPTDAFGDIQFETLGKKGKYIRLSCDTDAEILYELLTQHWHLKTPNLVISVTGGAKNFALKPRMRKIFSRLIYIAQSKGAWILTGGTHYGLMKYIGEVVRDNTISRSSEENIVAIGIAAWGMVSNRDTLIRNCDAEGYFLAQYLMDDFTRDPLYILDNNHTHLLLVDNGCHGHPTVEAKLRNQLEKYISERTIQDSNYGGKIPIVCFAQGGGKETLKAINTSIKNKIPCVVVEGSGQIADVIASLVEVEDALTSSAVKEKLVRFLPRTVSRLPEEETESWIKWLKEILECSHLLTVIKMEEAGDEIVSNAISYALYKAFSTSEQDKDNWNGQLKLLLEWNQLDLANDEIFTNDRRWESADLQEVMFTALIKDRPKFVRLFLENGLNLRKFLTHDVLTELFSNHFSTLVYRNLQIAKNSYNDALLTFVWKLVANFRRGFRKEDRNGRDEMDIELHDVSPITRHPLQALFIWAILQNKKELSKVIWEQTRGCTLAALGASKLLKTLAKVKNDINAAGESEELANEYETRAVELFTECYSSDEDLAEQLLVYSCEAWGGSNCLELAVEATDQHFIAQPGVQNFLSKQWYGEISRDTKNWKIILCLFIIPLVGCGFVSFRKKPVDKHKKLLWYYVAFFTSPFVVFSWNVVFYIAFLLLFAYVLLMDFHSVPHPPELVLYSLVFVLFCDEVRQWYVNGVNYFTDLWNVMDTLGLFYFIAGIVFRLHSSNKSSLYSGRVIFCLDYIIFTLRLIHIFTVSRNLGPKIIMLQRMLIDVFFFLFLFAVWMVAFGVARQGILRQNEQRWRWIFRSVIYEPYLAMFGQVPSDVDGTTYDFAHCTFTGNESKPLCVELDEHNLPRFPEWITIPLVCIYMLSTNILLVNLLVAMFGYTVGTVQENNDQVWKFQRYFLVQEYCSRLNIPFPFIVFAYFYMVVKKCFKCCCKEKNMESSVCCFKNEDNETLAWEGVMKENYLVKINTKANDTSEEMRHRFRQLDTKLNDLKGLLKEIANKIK

Consider `CC(C)[C@H]1CC[C@H](C)C[C@@H]1O` [(+)menthol], for which the EC50 in experiment [1] was 14.4 ± 1.3 µM.
In the case of `CC(C)[C@@H]1CC[C@@H](C)C[C@H]1O` [(−)menthol], the EC50 in experiment [1] was 4.1 ± 1.3 µM.
As to `CC(C)(C)c1ccc(NC(=O)N2CCN(c3ncccc3Cl)CC2)cc1` [BCTC, 4-(3-Chloro-2-pyridinyl)-N-[4-(1,1-dimethylethyl)phenyl]-1-piperazinecarboxamide], the IC50 at TRPM8 [2] is 0.8 ± 1 µM.
On to `CC(C)[C@@H]1CC[C@@H](C)C[C@H]1C(=O)NC(=N)N` [Compound 69], for which the Emax on TRPM8 [3] is more than 75%. The EC50 at TRPM8 [3] (no unit printed in this row) is less than 10 µM.
As to `CC(C)[C@@H]1CC[C@@H](C)C[C@H]1C(=O)Nc1cnn(CCO)c1` [Compound 70], at TRPM8 [3], the Emax is more than 75% and the EC50 is less than 1 µM.
On the same counts, the results for `COC(=O)c1cc(NC(=O)[C@@H]2C[C@H](C)CC[C@H]2C(C)C)ccn1` [Compound 72] are more than 75% and less than 5 µM.
As to `CC(C)[C@@H]1CC[C@@H](C)C[C@H]1C(=O)Nc1ccc(N2CCOCC2)nc1` [Compound 73], at TRPM8 [3], the Emax was more than 50% and the EC50 was less than 0.1 µM.
Turning to `COc1ccc(NC(=O)[C@@H]2C[C@H](C)CC[C@H]2C(C)C)cn1` [Compound 74], on TRPM8 [3], the Emax was more than 50% and the EC50 is less than 0.1 µM.
For `COc1ccc(NC(=O)[C@@H]2C[C@H](C)CC[C@H]2C(C)C)nc1Cl` [Compound 75], in that order: more than 75% and less than 5 µM.
Regarding `CCOc1ccc(NC(=O)[C@@H]2C[C@H](C)CC[C@H]2C(C)C)cn1` [Compound 76], at TRPM8 [3], the Emax is more than 50% and the concentration giving a half-maximal response (EC50) was less than 0.1 µM.
On the same counts, the results for `CC(C)[C@@H]1CC[C@@H](C)C[C@H]1C(=O)Nc1ccnc(CN(C)C)c1` [Compound 77] are more than 50% and less than 5 µM.
For `COC(=O)c1ccc(NC(=O)[C@@H]2C[C@H](C)CC[C@H]2C(C)C)cn1` [Compound 78], in that order: more than 75% and less than 0.5 µM.
For the compound `CC(C)[C@@H]1CC[C@@H](C)C[C@H]1C(=O)Nc1ccc(B2OC(C)(C)C(C)(C)O2)cn1` [Compound 79], on TRPM8 [3], the Emax is more than 75% and the EC50 was less than 2 µM.
On to `CC(C)[C@@H]1CC[C@@H](C)C[C@H]1C(=O)Nc1cncc(Cl)c1` [Compound 80], for which, at TRPM8 [3], the Emax was more than 75% and the EC50 is less than 1 µM.
Turning to `COc1ccc(NC(=O)[C@@H]2C[C@H](C)CC[C@H]2C(C)C)c(F)n1` [Compound 81], on TRPM8 [3], the Emax is more than 100% and the EC50 is less than 0.1 µM.
As to `COc1ncc(NC(=O)[C@@H]2C[C@H](C)CC[C@H]2C(C)C)cc1F` [Compound 82], on TRPM8 [3], the Emax was more than 75% and the EC50 was less than 0.5 µM.
For `CC(C)[C@@H]1CC[C@@H](C)C[C@H]1C(=O)Nc1ccncn1` [Compound 83], in that order: more than 75% and less than 5 µM.
With `CC(C)[C@@H]1CC[C@@H](C)C[C@H]1C(=O)Nc1ccc(S(C)(=O)=O)nc1` [Compound 84], at TRPM8 [3], the Emax is more than 75% and the EC50 was less than 0.1 µM.
Turning to `CC(C)[C@@H]1CC[C@@H](C)C[C@H]1C(=O)Nc1ccc(Cl)cn1` [Compound 86], at TRPM8 [3], the Emax was more than 100% and the EC50 is less than 5 µM.
On the same counts, the results for `COc1ncc(NC(=O)[C@@H]2C[C@H](C)CC[C@H]2C(C)C)cc1C` [Compound 88] are more than 35% and less than 5 µM.
For `CC(C)[C@@H]1CC[C@@H](C)C[C@H]1C(=O)NCC1CC1(F)F` (stereo partly shown) [Compound 89], in that order: more than 75% and less than 1 µM.
For `CC(C)[C@@H]1CC[C@@H](C)C[C@H]1C(=O)NCCC1CC1(F)F` (stereo partly shown) [Compound 91], in that order: more than 75% and less than 1 µM.
Turning to `CC(C)[C@@H]1CC[C@@H](C)C[C@H]1C(=O)NCC1(C#N)CC1` [Compound 93], on TRPM8 [3], the Emax was more than 75% and the EC50 is less than 10 µM.
In the case of `CC(C)[C@@H]1CC[C@@H](C)C[C@H]1C(=O)N[C@H]1CCC(F)(F)C1` [Compound 94], on TRPM8 [3], the Emax is more than 75% and the EC50 is less than 0.5 µM.
In the case of `CC(C)[C@@H]1CC[C@@H](C)C[C@H]1C(=O)N1CC(C)(CC(F)F)C1` [Compound 95], the EC50 at TRPM8 [3] is more than 10 µM.
On the same count and under the same terms, the value for `CC(C)[C@@H]1CC[C@@H](C)C[C@H]1C(=O)NCC#N` [Compound 97] was more than 10 µM.
On to `CC(C)[C@@H]1CC[C@@H](C)C[C@H]1C(=O)N[C@@H]1CCC(F)(F)C1` [Compound 98], for which, at TRPM8 [3], the Emax was more than 75% and the concentration for a half-maximal effect (EC50) is less than 0.5 µM.
In the case of `CC(C)[C@@H]1CC[C@@H](C)C[C@H]1C(=O)NCCC#N` [Compound 99], at TRPM8 [3], the Emax is more than 75% and the EC50 was less than 10 µM.
As for `CC(C)[C@@H]1CC[C@@H](C)C[C@H]1C(=O)NN1CCOCC1` [Compound 100], the Emax on TRPM8 [3] is more than 35%.
As for `C#CCNC(=O)[C@@H]1C[C@H](C)CC[C@H]1C(C)C` [Compound 101], at TRPM8 [3], the Emax was more than 75% and the EC50 is less than 5 µM.
On the same counts, the results for `CC(C)[C@@H]1CC[C@@H](C)C[C@H]1C(=O)NC1CCC(S(C)(=O)=O)C1` (stereo partly shown) [Compound 106] are more than 50% and less than 10 µM.
On the same counts, the results for `C=C(C)[C@@H]1CC[C@@H](C)C[C@H]1C(=O)Nc1ccc(OC)cc1` [Compound 107] are more than 100% and less than 0.5 µM.
On to `COc1ccc(NC(=O)[C@@H]2C[C@H](C)CC[C@H]2C(C)=O)cc1` [Compound 108], for which, at TRPM8 [3], the Emax was more than 5% and the EC50 was more than 10 µM.
For `COC(=O)C12CC(NC(=O)c3cc(C)ccc3C(C)C)(C1)C2` [Compound 170], in that order: more than 75% and less than 5 µM.
In the case of `COC12CCC(NC(=O)[C@H]3CCC[C@@H](N)C3)(CC1)CC2` [Compound 171], on TRPM8 [3], the EC50 is more than 10 µM.
For the compound `COC12CCC(NC(=O)c3cc(Cl)ccc3C(C)C)(CC1)CC2` [Compound 172], at TRPM8 [3], the Emax was more than 100% and the EC50 is less than 3 µM.
As for `COC12CCC(NC(=O)[C@H]3CCC[C@@H](NC(C)=O)C3)(CC1)CC2` [Compound 173], the EC50 at TRPM8 [3] was more than 10 µM.
Same read-out and setting: the value for `COc1ccc(NC(=O)c2cccc(C(F)(F)F)c2)cc1` [Compound 174] was more than 10 µM; that for `COc1ccc(NC(=O)[C@H]2CCC[C@@H](O)C2)cc1` [Compound 177] was more than 10 µM.
Take `C=C(C)[C@@H]1CC[C@@H](C)C[C@H]1O` [Coolact P]: the EC50 in experiment [1] was 66 ± 20 µM.
As to `CC(O)C(=O)O[C@@H]1C[C@H](C)CC[C@H]1C(C)C` (stereo partly shown) [FrescolatML], in experiment [1], the EC50 was 3.3 ± 1.5 µM.
With `C[C@@H]1CC[C@@H](C(C)(C)O)[C@H](O)C1` [PMD38], in experiment [1], the EC50 is 31 ± 1.1 µM.
As for `CCNC(=O)C1CC(C)CCC1C(C)C` (stereo not shown) [WS-3], in experiment [1], the EC50 is 3.7 ± 1.7 µM.
In the case of `CNC(=O)C(C)(C(C)C)C(C)C` [WS-23], the concentration giving a half-maximal response (EC50) in experiment [1] was 44 ± 7.3 µM.
On to `Oc1cc2c(cc1O)CN(C(=S)NCCc1ccc(Cl)cc1)CCC2` [capsazepine], for which, on TRPM8 [2], the IC50 was 18 ± 1.1 µM.
Regarding `CC1CCC(C(C)C)C(OCC(O)CO)C1` (stereo not shown) [cooling agent 10], in experiment [1], the EC50 was 6 ± 2.2 µM.
For the compound `CC12CCC(CC1)C(C)(C)O2` [eucalyptol], in experiment [1], the EC50 is 7700 ± 2000 µM.
On to `CC1CCC(C(C)C)C2(C1)OCC(CO)O2` (stereo not shown) [frescolatMAG], for which the EC50 in experiment [1] is 4.8 ± 1.1 µM.
In the case of `CC(C)=CCC/C(C)=C/CO` [geraniol], in experiment [1], the half-maximal effective concentration (EC50) is 5900 ± 1600 µM.
Turning to `CC(CC=O)CCCC(C)(C)O` (stereo not shown) [hydroxycitronellal], the EC50 in experiment [1] was 19600 ± 2200 µM.
As to `O=C1NC(c2cccc([N+](=O)[O-])c2)=CCN1c1ccccc1O` [icilin], the EC50 at TRPM8 [4] is 0.028 µM.
As for `C=CC(C)(O)CCC=C(C)C` (stereo not shown) [linalool], the EC50 in experiment [1] was 6700 ± 2000 µM.
For `CC(C)(C)c1ccc(NC(=S)N2CCN(c3ncccc3Cl)CC2)cc1` [thio-BCTC], at TRPM8 [2], the half-maximal inhibitory concentration (IC50) was 3.5 ± 1.1 µM.
